Data reported in the supplement of paper PMC13380429.
± gives the standard deviation of the averaged measurements.

Key:
Conditions in all cases: 72 h
U2OS [1] = assay: relative viability EC50 (midpoint between 100% and the lowest measured viability); higher = less toxic
Caco-2 [2] = assay: as above
Vero E6 [3] = assay: as above
HepG2 [4] = assay: as above
U2OS [5] = assay: cell viability relative to DMSO; higher = less toxic
Caco-2 [6] = assay: as above
Vero E6 [7] = assay: as above
HepG2 [8] = assay: as above
U2OS [9] = assay: drug sensitivity score (DSS) for viability; higher = more toxic; extreme values may be limits of the assay
Caco-2 [10] = assay: as above
Vero E6 [11] = assay: as above
HepG2 [12] = assay: as above
Calu-3 [13] = assay: cell viability relative to DMSO; higher = less toxic
Calu-3 [14] = assay: drug sensitivity score (DSS) for viability; higher = more toxic; extreme values may be limits of the assay

| SMILES | relative viability EC50 (U2OS [1]) [nM] | relative viability EC50 (Caco-2 [2]) [nM] | relative viability EC50 (Vero E6 [3]) [nM] | relative viability EC50 (HepG2 [4]) [nM] | cell viability (U2OS [5]; 1 nM) [%] | cell viability (U2OS [5]; 10 nM) [%] | cell viability (U2OS [5]; 100 nM) [%] | cell viability (U2OS [5]; 1000 nM) [%] | cell viability (U2OS [5]; 10000 nM) [%] | cell viability (Caco-2 [6]; 1 nM) [%] | cell viability (Caco-2 [6]; 10 nM) [%] | cell viability (Caco-2 [6]; 100 nM) [%] | cell viability (Caco-2 [6]; 1000 nM) [%] | cell viability (Caco-2 [6]; 10000 nM) [%] | cell viability (Vero E6 [7]; 1 nM) [%] | cell viability (Vero E6 [7]; 10 nM) [%] | cell viability (Vero E6 [7]; 100 nM) [%] | cell viability (Vero E6 [7]; 1000 nM) [%] | cell viability (Vero E6 [7]; 10000 nM) [%] | cell viability (HepG2 [8]; 1 nM) [%] | cell viability (HepG2 [8]; 10 nM) [%] | cell viability (HepG2 [8]; 100 nM) [%] | cell viability (HepG2 [8]; 1000 nM) [%] | cell viability (HepG2 [8]; 10000 nM) [%] | drug sensitivity score (U2OS [9]) | drug sensitivity score (Caco-2 [10]) | drug sensitivity score (Vero E6 [11]) | drug sensitivity score (HepG2 [12]) | cell viability (Calu-3 [13]; 1 nM) [%] | cell viability (Calu-3 [13]; 10 nM) [%] | cell viability (Calu-3 [13]; 100 nM) [%] | cell viability (Calu-3 [13]; 1000 nM) [%] | cell viability (Calu-3 [13]; 10000 nM) [%] | drug sensitivity score (Calu-3 [14]) |
| --- | --- | --- | --- | --- | --- | --- | --- | --- | --- | --- | --- | --- | --- | --- | --- | --- | --- | --- | --- | --- | --- | --- | --- | --- | --- | --- | --- | --- | --- | --- | --- | --- | --- | --- |
| CN(c1ccccc1CNc1nc(Nc2ccc3c(c2)CC(=O)N3)ncc1C(F)(F)F)S(C)(=O)=O | 1580 | 1610 | 1070 | 895 | 98.2 | 102 | 94.3 | 76.1 | 0.2 | 92.4 | 91.6 | 91.5 | 83.8 | 33.6 | 97 | 88.8 | 81.2 | 65.4 | 10.3 | 92.8 | 89.9 | 92.9 | 51.5 | 7.2 | 9.2 | 6 | 9.6 | 10.9 |  |  |  |  |  |  |
| Cc1ccc(-c2c(-c3nn(C)c4ncnc(N5CC[C@H](N6CCCCC6)C5)c34)cnn2C)cc1 | > 10000 | > 10000 |  |  | 104 | 99.5 | 99 | 98.9 | 100 | 106 | 102 | 106 | 96.1 | 100 |  |  |  |  |  |  |  |  |  |  | 0 | 0 |  |  |  |  |  |  |  |  |
| Cn1cccc1/C=C1\C(=O)NC(=O)c2ccccc21 | 3280 |  |  | 1840 | 110 | 105 | 106 | 101 | 29.8 | 106 | 103 | 108 | 109 | 55.2 | 104 | 108 | 104 | 106 | 71.4 | 83.2 | 103 | 72.1 | 83 | 21.2 | 3.7 | 1.8 | 0.9 | 6.5 | 98.6 | 97.5 | 102 | 91 | 69 | 2.7 |
| Cn1ncc(Cl)c1-c1cc(C(=O)N[C@H](CN)Cc2cccc(F)c2)sc1Cl | > 10000 | > 10000 | > 10000 | > 10000 | 97.2 | 95.6 | 97.9 | 94.1 | 89.2 | 83.6 | 85.6 | 95.3 | 79.7 | 71 | 91.8 | 101 | 91.5 | 93.6 | 100 | 86.8 | 101 | 96.7 | 93.8 | 84.7 | 0 | 0 | 0 | 0 | 98 | 97.6 | 104 | 89.7 | 63.6 | 3.3 |
| NCC1OC(C23CC4CC(CC(C4)C2)C3)Cc2c1ccc(O)c2O (stereo not drawn) | > 10000 |  |  | 3260 | 102 | 100 | 99 | 94.9 | 92.5 | 114 | 86.9 | 94.3 | 85.1 | 54.4 | 94 | 97.3 | 96 | 100 | 58.8 | 101 | 95.9 | 103 | 101 | 26.5 | 0 | 4 | 2 | 4 | 106 | 98.1 | 100 | 94.2 | 65.3 | 2.6 |
| O=C(NOCCO)c1cc(CN2OCCCC2=O)c(F)c(F)c1Nc1ccc(I)cc1F |  |  |  |  | 97.2 | 92.9 | 90.1 | 87.4 | 43.7 | 88.1 | 76.9 | 67.9 |  | 68.2 | 89.3 | 85.2 | 61.2 | 50.7 | 50.4 | 100 | 70 | 34 | 19 | 21.6 | 4.9 | 13.5 | 15 | 26.2 | 96 | 92.1 | 61.7 | 43.4 | 32.7 | 15.9 |
| COc1cc2c(cc1O)CC[C@@H]1[C@@H]2CC[C@]2(C)[C@@H](O)CC[C@@H]12 [2-methoxyestradiol] | 1150 |  | 2500 | 3990 | 96.4 | 95.1 | 102 | 77.8 | 46.5 | 99.1 | 105 | 101 | 77.4 | 58.1 | 99.6 | 97.8 | 98.9 | 94.8 | 36.2 | 96.1 | 99.9 | 91.7 | 115 | 33.8 | 5.9 | 4.9 | 4.3 | 2.8 | 103 | 107 | 106 | 98.9 | 60.2 | 2.1 |
| O=C(O)CCC(=O)C(=O)O [2-oxoglutaric-acid] | > 10000 | > 10000 | > 10000 | > 10000 | 98.5 | 99.5 | 95.2 | 98.7 | 99.3 | 95.3 | 97.7 | 95 | 94.2 | 91.5 | 97.8 | 104 | 98.3 | 104 | 102 | 97.9 | 94.3 | 91.4 | 98.8 | 105 | 0 | 0 | 0 | 0 |  |  |  |  |  |  |
| COc1ccc(S(=O)(=O)Nc2cccnc2Nc2ccc(O)cc2)cc1 [ABT-751] | 884 | 260 | 248 | 522 | 103 | 99.4 | 104 | 57.5 | 26.4 | 100 | 89.6 | 86.3 | 53.7 | 42.4 | 102 | 98.9 | 93.3 | 29.8 | 27.9 | 101 | 108 | 105 | 45.1 | 35.2 | 9.2 | 10.1 | 14.2 | 10 | 108 | 87.3 | 94 | 69.4 | 55.8 | 6.2 |
| COc1cc(-c2ncn(/C=C\C(=O)OC(C)C)n2)cc(C(F)(F)F)c1 [KPT-185] | 284 | 480 | 573 | 218 | 98.1 | 93.7 | 89.5 | 11.3 | 4.1 | 94.7 | 96.5 | 92.2 | 57 | 38.9 | 97.1 | 102 | 96.4 | 41.8 | 20 | 105 | 100 | 84.3 | 29.1 | 23.9 | 17.6 | 9 | 11.6 | 15.1 | 99.4 | 91.1 | 81.8 | 55.6 | 51.9 | 10 |
| Cc1cc(C)cc(C(=O)NOCCCCCC(=O)NO)c1 [LMK-235] | 884 | 1220 | 777 | 441 | 95.9 | 91.3 | 90.4 | 49.3 | 1.9 | 107 | 86.9 | 96.4 | 60.3 | 0.9 | 95.3 | 102 | 96.1 | 39.8 | -0.1 | 95.1 | 93.3 | 79.4 | 34.4 | 0.3 | 11.6 | 10.4 | 12.7 | 15.1 |  |  |  |  |  |  |
| CCOC(=O)c1ccc(N2NC(=O)/C(=C/c3ccc([N+](=O)[O-])o3)C2=O)cc1 [PYR-41] | > 10000 |  | > 10000 | > 10000 | 93.5 | 98.3 | 101 | 93.4 | 75.5 | 96 | 100 | 95.1 | 85 | 71.2 | 103 | 103 | 99.2 | 101 | 85.7 | 112 | 99.7 | 94.4 | 105 | 84.9 | 1.8 | 2.6 | 0.1 | 0.1 | 85.5 | 101 | 92.2 | 71.6 | 62 | 5.7 |
| COc1cc(/C=C/c2ccc(OC)cc2OC)cc(OC)c1 [TMS] |  |  | 2080 | 1940 | 98.8 | 107 | 94.1 | 101 | 52.5 | 86.4 | 97.6 | 81.6 | 92.4 | 55.5 | 93.6 | 95.5 | 94.7 | 91.3 | 35 | 98.7 | 94.7 | 96.1 | 91.5 | 46.2 | 2.4 | 4.2 | 5 | 4.3 | 97 | 99.6 | 92.6 | 106 | 62.8 | 1.4 |
| C/C(=N\Nc1nnc2c(n1)[nH]c1c(C)cccc12)c1ccccn1 [VLX600] | 418 | 320 | 525 | 319 | 100 ± 3.2 | 99.6 ± 9.3 | 98.9 | 34.3 ± 6.7 | 27 ± 0.99 | 95.5 ± 6 | 101 ± 1.6 | 98.1 ± 4.1 | 20.2 ± 5.8 | 21 ± 2.1 | 101 ± 6 | 100.5 ± 0.49 | 104 ± 2.5 | 21.6 ± 15 | 4.95 ± 1.2 | 102 ± 2.3 | 107 ± 10 | 103 ± 11 | 17.9 ± 6 | 23.6 ± 1.6 | 12.2 ± 1.3 | 14.8 ± 0.35 | 14.6 ± 2.2 | 14.85 ± 0.071 |  |  |  |  |  |  |
| CC#CC(=O)N1CCC[C@H]1c1nc(-c2ccc(C(=O)Nc3ccccn3)cc2)c2c(N)nccn12 [acalabrutinib] | > 10000 | > 10000 | > 10000 | > 10000 | 99.3 | 95.6 | 105 | 95.3 | 102 | 92.1 | 101 | 99.4 | 90.5 | 97.8 | 91.4 | 99.7 | 93.1 | 96.7 | 98.2 | 95.9 | 96.7 | 95 | 103 | 102 | 0 | 0 | 0 | 0 | 99.5 | 89.1 | 84.2 | 67.8 | 65.3 | 7.3 |
